Patent US20230234936A1, “COMPOUND FOR TARGETING AND DEGRADING PROTEIN, AND PREPARATION METHOD THEREFOR AND USE THEREOF” (SHANGHAI LEADINGTAC PHARMACEUTICAL CO., LTD., priority 2020, published 2023)

Columns and labels:
[1] = target: T1, IRAK4 kinase (Homo sapiens, UniProt Q9NWZ3); assay: IRAK4 kinase activity test (KinEASE-STK S1 HTRF kit); assay type: biochemical; settings: 2.5 nM kinase, 1 μM biotinylated polypeptide substrate, 7 μM ATP, 37° C. 120 min
T1 sequence (Q9NWZ3 1-460): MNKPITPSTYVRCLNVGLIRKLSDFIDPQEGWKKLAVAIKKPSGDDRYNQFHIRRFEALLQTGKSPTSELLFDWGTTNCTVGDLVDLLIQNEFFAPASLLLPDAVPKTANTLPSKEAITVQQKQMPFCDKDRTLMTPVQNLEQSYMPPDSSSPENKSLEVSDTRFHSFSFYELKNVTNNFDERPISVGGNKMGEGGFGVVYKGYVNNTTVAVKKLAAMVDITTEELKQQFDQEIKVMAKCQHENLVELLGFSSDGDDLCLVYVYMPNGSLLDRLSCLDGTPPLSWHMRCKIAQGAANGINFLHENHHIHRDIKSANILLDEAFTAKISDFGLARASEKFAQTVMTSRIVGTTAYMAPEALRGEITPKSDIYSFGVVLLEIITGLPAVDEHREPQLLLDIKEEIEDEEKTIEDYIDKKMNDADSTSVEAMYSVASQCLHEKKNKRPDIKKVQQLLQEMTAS
Protocol: KinEASE-STK S1 serine/threonine kinase kit (Cisbio) was used to detect the inhibitory effect of the compound on IRAK4 kinase activity. The specific method was: the compound was dissolved in dimethyl sulfoxide, and then it was diluted with the buffer solution of the kit by equal gradient to make the final concentration range of the tested compound in the reaction system 10000 nM-0.038 nM, then 2.5 nM kinase, 1 μM biotinylated polypeptide substrate and 7 μM adenosine triphosphate (ATP) were added in sequence and incubated at 37° C. for 120 min. Subsequently, anti-phosphorylated serine/threonine antibody coupled with europium element compound and modified XL665 streptavidin were added to the reaction system to terminate the reaction. After incubating at room temperature for 1 h, the fluorescence intensity of each well at the emission wavelength of 620 nm and 665 nm and the excitation wavelength of 337 nm was determined in HTRF mode on the microplate reader EnVision(PerkinElmer), the ratio value was calculated using the formula Ratio=(665 nm/620 nm)×10^4. By comparing with the fluorescence intensity ratio of the control group, the inhibition rate of the compound at each concentration was calculated, and then the IC50 value of the compound was obtained by fitting the nonlinear curve with the logarithmic concentration-inhibition rate by GraphPad Prism 7.

[2] = target: T2, IRAK4 protein in THP-1 cells (Homo sapiens, UniProt Q9NWZ3); assay: Degradation of IRAK4 in THP-1 cells (Western blot); assay type: cell-based; settings: 24 hours, compound 1-3000 nM
T2 construct: endogenous in cells; host or cells: THP-1
T2 sequence (Q9NWZ3 1-460): T1 sequence (Q9NWZ3 1-460)
Protocol: Each well of the 24-well cell culture plate was inoculated with 0.95 mL THP-1 cells (stem cell bank of Chinese academy of sciences) with a cell density of 5×10^5 cells/well. The cell plate was placed in a 5% carbon dioxide incubator and cultured overnight at 37° C., then 50 μL compound in dimethyl sulfoxide was added. The final concentration of the compound was in the range of 1-3000 nM. After continuous cultivation for 24 hours, the cells were collected into a 1.5 mL centrifuge tube, centrifuged at 1000 rpm and 4° C. for 5 minutes. Cell precipitation was cleaned twice with 1-DPBS, resuspended cells were lysed with 200 μL lysate (cell lysate was Western and IP cell lysate (Beyotime), supplemented with 1 mM mixture of phenylmethylsulfonyl fluoride and protease inhibitor (Beyotime)), left on ice for 30 minutes, then centrifuged at 14000 g at 4° C. for 10 minutes, and the supernatant was taken to detect IRAK4 protein level by Western blot.
Western blot method: The total protein concentration in the supernatant of cell lysis was determined by BCA protein quantitative kit (Tiangen). According to the concentration of total protein detected by BCA, the supernatant was adjusted to 0.2 μg/μL with PBS and 5× SDS-PAGE protein loading buffer (Beyotime), bathed in water at 100° C. for 10 minutes, then placed in ice bath for 5 minutes, centrifuged at 14000 g and 4° C. for 5 minutes, and then collected as WB loading sample. Prefabricated glue (KeyGEN) was used for protein electrophoresis with a loading amount of 10 μL (total protein 2 μg). After Tris-MOPS-SDS electrophoresis solution (Adamas), 120V constant pressure electrophoresis was performed. After electrophoresis, the protein on the adhesive strip was transferred to PVDF membrane with a constant current of […] for 50 minutes. After the membrane was transferred, the membrane was placed in 1×QuickBlock blocking buffer (Beyotime) and incubated for 30 minutes at room temperature. After blocking, PVDF membranes were incubated with IRAK4 primary antibody (Abcam) overnight at 4°, the membranes were washed with TBST buffer (2.4 g Tris, 8.8 g NaCl, 1.5 mL Tween 20, pH adjusted to 7.4, constant volume to 1 L) for 30 minutes, incubated with secondary antibody (Abcam) for 2 hours at room temperature, finally incubated with Clarity Western ECL Substrate(BIO-RAD) for 5 minutes for luminescence development, chemiluminescence imaging system (Clinx, chemiScope 6200 Touch) for development and protein mapping photography. The protein map was analyzed by Clinx chemiluminescence analysis software for grayscale values. Using the formula: grayscale correction value=(target protein grayscale value/corresponding internal reference grayscale value)×10^3, the grayscale correction value of each sample was calculated. The degradation rate was calculated by comparing with the grayscale correction value of the control group. Furthermore, DC50 and Dmax values of the compound were obtained by the nonlinear curve fitting with the logarithmic concentration-inhibition rate by GraphPad Prism 7.

IC50 [1]	DC50 [2]	Dmax [2]	SMILES
18 nM	4 nM	90.1%	COc1ccc(C(=O)N2CCC3(CCC(CCN4CCC(n5cc6cc(NC(=O)c7cccc(C(F)(F)F)n7)c(C(C)(C)O)cc6n5)CC4)CC3)CC2)cc1N1CCC(=O)NC1=O [Example 21, N-(2-(1-(2-(3-(3-(2,4-dioxotetrahydro-pyrimidin-1 (2H)-yl)-4-me-thoxybenzoyl)-3-azaspiro [5.5]undec-9-yl)ethyl)piperidin-4-yl)-6-(2-hydroxyprop-2-yl)-2H-indazol-5-yl)-6-(trifluoro-methyl) pyridinecarbox-amide]
17.2 nM	2.1 nM	96.6%	COc1ccc(C(=O)N2CCC3(CCC(CN4CCC(n5cc6cc(NC(=O)c7cccc(C(F)(F)F)n7)c(C(C)(C)O)cc6n5)CC4)CC3)CC2)cc1N1CCC(=O)NC1=O [Example 33, N-(2-(1-((3-(3-(2-4-dioxotetrahydro-pyrimidin-1 (2H)-yl)-4-me-thoxybenzoyl)-3-azaspiro [5.5]undec-9-yl)methyl)piperdin-4-yl)-6-(2-hydroxyprop-2-yl)-2H-indazol-5-yl)-6-(trifluoro-methyl) pyridinecarbox-amide]
11.8 nM	4 nM	92.5%	CC(C)(O)c1cc2nn(C3CCN(CC4CC5(CCN(C(=O)c6ccc(Cl)c(N7CCC(=O)NC7=O)c6)CC5)C4)CC3)cc2cc1NC(=O)c1cccc(C(F)(F)F)n1 [Example 36, N-(2-(1-((7-(4-chloro-3-(2,4-dioxotetrahydro-pyrimidin-1 (2H)-yl)benzoyl)-7-azaspiro [3.5]non-2-yl)methyl)piperdin-4-yl)-6-(2-hydroxyprop-2-yl)-2H-indazol-5-yl)-6-(trifluoro-methyl) pyridinecarbox-amide]
16.7 nM	10.5 nM	89.4%	COc1cc2nn(C3CCN(CC4CC5(CCN(C(=O)c6ccc(Cl)c(N7CCC(=O)NC7=O)c6)CC5)C4)CC3)cc2cc1NC(=O)c1cccc(C(F)(F)F)n1 [Example 39, N-(2-(1-((7-(4-chloro-3-(2,4-dioxotetrahydro-pyrimidin-1 (2H)-yl)benzoyl)-7-azospiro [3.5]non-2-yl)methyl)piperidin-4-yl)-6-methoxy-2H-indazol-5-yl)-6-(trifluoromethyl) pyridinecarbox-amide]
39.2 nM	7.8 nM	100%	COc1cc2nn(C3CCN(CC4CCC5(CC4)CCN(C(=O)c4ccc(F)c(C6CCC(=O)NC6=O)c4)CC5)CC3)cc2cc1NC(=O)c1cccc(C(F)(F)F)n1 (stereo not drawn) [Example 42, N-(2-(1-((3-(3-(2,6-dioxopiperidin-3-yl)-4-fluoro-benzoyl)-3-azaspiro [5.5]undec-9-yl)methyl)piperidin-4-yl)-6-methoxy-2H-indazol-5-yl)-6-(trifluoromethyl) pyridinecarbox-amide]
24.2 nM	4.9 nM	98.7%	COc1cc2nn(C3CCN(CCC4CC5(CCN(C(=O)c6ccc(Cl)c(N7CCC(=O)NC7=O)c6)CC5)C4)CC3)cc2cc1NC(=O)c1cccc(C(F)(F)F)n1 [Example 43, N-(2-(1-(2 (7-(4-chloro-3-(2,4-dioxotetrahydro-pyrimidin-1 (2H)-yl)benzoyl)-7-azospiro [3.5]non-2-yl)ethyl)piperidin-4-yl)-6-methoxy-2H-indazol-5-yl)-6-(trifluoromethyl) pyridinecarbox-amide]

Continued, compound first:

SMILES	IC50 [1]	DC50 [2]	Dmax [2]
COc1ccc(C(=O)N2CCC(CCCN3CCC(n4cc5cc(NC(=O)c6cccc(C(F)(F)F)n6)c(C(C)(C)O)cc5n4)CC3)CC2)cc1N1CCC(=O)NC1=O [Example 22, N-(2-(1-(3-(1-(3-(2,4-dioxotetrahydro-pyrimidin-1 (2H)-yl)-4-me-thoxybenzoyl)piperidin-4-yl)propyl)piperidin-4-yl)-6-(2-hydroxyprop-2-yl)-2H-inda-zol-5-yl)-6-(trifluoromethyl) pyridinecarbox-amide]	11.7 nM	16.4 nM	94.3%
COc1ccc(C(=O)N2CCC(OCCN3CCC(n4cc5cc(NC(=O)c6cccc(C(F)(F)F)n6)c(C(C)(C)O)cc5n4)CC3)CC2)cc1N1CCC(=O)NC1=O [Example 23, N-(2-(1-(2-((1-(3-(2,4-dioxotetrahydro-pyrimidin-1 (2H)-yl)-4-me-thoxybenzoyl)piperidin-4-yl)oxy)ethyl)piperdin-4-yl)-6-(2-hydroxyprop-2-yl)-2H-inda-zol-5-yl)-6-(triflu-oromethyl) pyridinecarbox-amide]	8.5 nM	32.4 nM	97.6%
CCOc1ccc(C(=O)N2CCC3(CC2)CC(CCN2CCC(n4cc5cc(NC(=O)c6cccc(C(F)(F)F)n6)c(C(C)(C)O)cc5n4)CC2)C3)cc1N1CCC(=O)NC1=O [Example 25]	13.7 nM	0.82 nM	98%
COc1ccc(C(=O)N2CCC3(CC2)CC(CCN2CCC(n4cc5cc(NC(=O)c6cccc(C(F)(F)F)n6)c(C(C)(C)O)cc5n4)CC2)C3)cc1N1CCC(=O)NC1=O [Example 26]	6.5 nM	1 nM	86.9%
CC(C)(O)c1cc2nn(C3CCN(CCC4CC5(CCN(C(=O)c6ccc(Cl)c(N7CCC(=O)NC7=O)c6)CC5)C4)CC3)cc2cc1NC(=O)c1cccc(C(F)(F)F)n1 [Example 27]	13.8 nM	3.5 nM	96.3%
COc1cc2nn(C3CCN(CC4CCC5(CC4)CCN(C(=O)c4ccc(OC)c(N6CCC(=O)NC6=O)c4)CC5)CC3)cc2cc1NC(=O)c1cccc(C(F)(F)F)n1 [Example 30, N-(2-(1-((3-(3-(2,4-dioxotetrahydro-pyrimidin-1 (2H)-yl)-4-me-thoxybenzoyl)-3-azaspiro[5.5]undec-9-yl)methyl)piperidin-4-yl)-6-methoxy-2H-indazol-5-yl)-6-(tri-fluoromethyl) pyridinecarbox-amide]	16 nM	2.3 nM	98.4%
CC(C)(O)c1cc2nn(C3CCN(CCC4CCN(C(=O)c5ccc(Cl)c(N6CCC(=O)NC6=O)c5)CC4)CC3)cc2cc1NC(=O)c1cccc(C(F)(F)F)n1 [Example 35]	10.3 nM	8.4 nM	95.2%
COc1cc2nn(C3CCN(CC4CCC5(CC4)CCN(C(=O)c4ccc(F)c(N6CCC(=O)NC6=O)c4)CC5)CC3)cc2cc1NC(=O)c1cccc(C(F)(F)F)n1 [Example 44, N-(2-(1-((3-(3-(2,4-dioxotetrahydro-pyrimidin-1 (2H)-yl)-4-fluoro-benzoyl)-3-azaspiro[5.5]undec-9-yl)methyl)piperidin-4-yl)-6-methoxy-2H-indazol-5-yl)-6-(trifluoromethyl) pyridinecarbox-amide]	52.4 nM	2.3 nM	98.5%
